# What was measured:
# [1] = Displacement of [3H]Spiperone from recombinant human Dopamine D4.4 receptor expressed in CHO-K1 cell membranes after 120 mins
# [2] = Displacement of [3H]Spiperone from recombinant human Dopamine D4.4 receptor expressed in CHO-K1 cell membranes at 10 uM after 120 mins relative to control
# [3] = target: D(1A) dopamine receptor (Homo sapiens) (UniProt P21728); experiment: Displacement of [3H]SCH-23390 from recombinant human Dopamine D1 receptor expressed in CHO cell membranes at 10 uM after 120 mins relative to control
# [4] = target: D(2) dopamine receptor (Homo sapiens) (UniProt P14416); experiment: Displacement of [3H]Spiperone from recombinant human Dopamine D2L receptor expressed in CHO cell membranes at 10 uM after 120 mins relative to control
# [5] = target: D(2) dopamine receptor (Homo sapiens) (UniProt P14416); experiment: Displacement of [3H]Spiperone from recombinant human Dopamine D2S receptor expressed in CHO cell membranes at 10 uM after 120 mins relative to control
# [6] = target: D(3) dopamine receptor (Homo sapiens) (UniProt P35462); experiment: Displacement of [3H]Spiperone from recombinant human Dopamine D3 receptor expressed in CHO cell membranes at 10 uM after 120 mins relative to control
# [7] = target: D(1B) dopamine receptor (Homo sapiens) (UniProt P21918); experiment: Displacement of [3H]SCH-23390 from recombinant human Dopamine D5 receptor expressed in CHO cell membranes at 10 uM after 120 mins relative to control
# D(1B) dopamine receptor (Homo sapiens), sequence (P21918 whole entry): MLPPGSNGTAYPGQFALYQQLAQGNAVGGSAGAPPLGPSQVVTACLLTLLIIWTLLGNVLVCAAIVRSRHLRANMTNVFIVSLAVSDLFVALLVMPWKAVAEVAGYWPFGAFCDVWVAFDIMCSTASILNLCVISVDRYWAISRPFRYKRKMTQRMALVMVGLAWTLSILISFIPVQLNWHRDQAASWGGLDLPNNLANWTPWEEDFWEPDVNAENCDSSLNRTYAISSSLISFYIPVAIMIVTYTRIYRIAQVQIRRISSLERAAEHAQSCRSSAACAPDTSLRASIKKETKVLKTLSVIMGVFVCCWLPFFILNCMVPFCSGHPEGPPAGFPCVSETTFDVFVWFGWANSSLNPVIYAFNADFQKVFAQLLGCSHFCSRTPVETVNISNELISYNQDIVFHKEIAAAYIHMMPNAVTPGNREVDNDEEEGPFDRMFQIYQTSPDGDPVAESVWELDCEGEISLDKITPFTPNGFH
# D(2) dopamine receptor (Homo sapiens), sequence (P14416 whole entry): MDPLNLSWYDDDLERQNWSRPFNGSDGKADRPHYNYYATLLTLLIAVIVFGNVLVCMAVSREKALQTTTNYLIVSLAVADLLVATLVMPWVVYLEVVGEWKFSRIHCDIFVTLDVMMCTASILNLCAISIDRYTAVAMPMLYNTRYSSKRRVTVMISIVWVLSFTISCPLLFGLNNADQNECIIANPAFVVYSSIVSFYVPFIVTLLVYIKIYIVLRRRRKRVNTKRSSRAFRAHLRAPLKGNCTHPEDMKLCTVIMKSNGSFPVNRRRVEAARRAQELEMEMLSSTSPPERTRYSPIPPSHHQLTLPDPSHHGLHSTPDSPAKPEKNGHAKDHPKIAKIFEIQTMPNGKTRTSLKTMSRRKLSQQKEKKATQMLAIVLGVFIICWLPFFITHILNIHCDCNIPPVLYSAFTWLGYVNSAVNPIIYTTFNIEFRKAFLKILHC
# D(1A) dopamine receptor (Homo sapiens), sequence (P21728 whole entry): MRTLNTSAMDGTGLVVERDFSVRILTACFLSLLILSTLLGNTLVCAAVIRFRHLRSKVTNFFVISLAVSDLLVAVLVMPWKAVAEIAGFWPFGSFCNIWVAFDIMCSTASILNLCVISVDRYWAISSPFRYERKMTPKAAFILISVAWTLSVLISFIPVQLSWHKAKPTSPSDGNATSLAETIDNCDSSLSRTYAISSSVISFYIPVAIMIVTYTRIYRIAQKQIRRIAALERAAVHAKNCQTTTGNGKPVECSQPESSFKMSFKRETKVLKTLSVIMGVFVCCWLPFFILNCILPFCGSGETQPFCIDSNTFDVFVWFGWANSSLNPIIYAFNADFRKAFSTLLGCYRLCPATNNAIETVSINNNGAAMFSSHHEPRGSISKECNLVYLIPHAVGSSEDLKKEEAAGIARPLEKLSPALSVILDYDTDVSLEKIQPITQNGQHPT
# D(3) dopamine receptor (Homo sapiens), sequence (P35462 whole entry): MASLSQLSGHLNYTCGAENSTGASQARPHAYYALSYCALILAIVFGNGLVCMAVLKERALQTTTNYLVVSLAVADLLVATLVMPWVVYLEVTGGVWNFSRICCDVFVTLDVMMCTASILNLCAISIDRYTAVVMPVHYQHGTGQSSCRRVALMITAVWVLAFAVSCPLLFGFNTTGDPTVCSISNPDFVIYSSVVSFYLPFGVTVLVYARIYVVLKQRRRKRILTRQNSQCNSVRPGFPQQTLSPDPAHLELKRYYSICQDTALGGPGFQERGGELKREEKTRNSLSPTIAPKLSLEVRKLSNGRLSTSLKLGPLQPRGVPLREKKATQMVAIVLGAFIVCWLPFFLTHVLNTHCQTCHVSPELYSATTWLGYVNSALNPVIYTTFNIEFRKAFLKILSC
IC50 [1] [nM],Structure (SMILES),Ki [1] [nM],inhibition [2] [%],further results
130,Clc1ccc(CN2CCO[C@H](CCc3ccccc3)C2)cc1,36,–,–
56,COc1ccc(CN2CCO[C@H](COc3ccccc3)C2)cc1F,14.3,–,–
5990,Fc1ccccc1CC[C@H]1CN(Cc2c[nH]c3cc(Cl)ccc23)CCC1(F)F,1660,59,–
3200,Fc1ccc(CC[C@H]2CN(Cc3c[nH]c4cc(Cl)ccc34)CCC2(F)F)cc1,890,73,–
> 10000,Cc1ccc(CN2CCC(F)(F)[C@@H](CCc3ccccc3)C2)cc1C,–,–,–
–,COc1ccc2cc(CN3CCC(F)(F)[C@@H](CCc4ccccc4)C3)c(OC)nc2c1,–,25,–
–,FC1(F)CCN(Cc2c[nH]c3cc(Cl)ccc23)C[C@@H]1CCc1ccccc1,–,58,–
–,Fc1ccc2c(CN3CCC(F)(F)[C@@H](CCc4ccccc4)C3)c[nH]c2c1,–,64,–
1540,COc1cccc(CCC2CN(Cc3c[nH]c4cc(F)ccc34)CCC2(F)F)c1 (racemic),430,88,–
45,COc1ccc2c(CN3CCC(F)(F)C(CCc4cccc(F)c4)C3)c[nH]c2c1 (racemic),12.5,93,–
1360,FC1(F)CCN(Cc2ccc3ncccc3c2)CC1CCc1ccccc1 (racemic),380,87,–
300,Cc1ccc(CN2CCC(F)(F)C(CCc3ccccc3)C2)cc1C (racemic),82,85,inhibition [3]: < 20%; inhibition [4]: < 20%; inhibition [5]: < 20%; inhibition [6]: < 20%; inhibition [7]: < 20%
21,COc1ccc2c(CN3CCC(F)(F)C(CCc4ccccc4F)C3)c[nH]c2c1 (racemic),5.9,95,inhibition [3]: < 50%; inhibition [4]: < 50%; inhibition [5]: 66%; inhibition [6]: 80%; inhibition [7]: < 50%
35,Fc1ccc(CCC2CN(Cc3ncn4ccccc34)CCC2(F)F)cc1 (racemic),9.7,97,inhibition [3]: < 50%; inhibition [4]: < 50%; inhibition [5]: < 50%; inhibition [6]: < 50%; inhibition [7]: < 50%
77,Fc1cccc(CCC2CN(Cc3c[nH]c4cc(F)ccc34)CCC2(F)F)c1 (racemic),21,92,inhibition [3]: < 50%; inhibition [4]: < 50%; inhibition [5]: < 50%; inhibition [6]: < 50%; inhibition [7]: < 50%
230,COc1ccccc1CCC1CN(Cc2c[nH]c3cc(Cl)ccc23)CCC1(F)F (racemic),64,94,–
550,COc1cccc(CCC2CN(Cc3c[nH]c4cc(OC)ccc34)CCC2(F)F)c1 (racemic),150,89,–
37,COc1ccc2c(CN3CCC(F)(F)C(CCc4ccc(F)cc4)C3)c[nH]c2c1 (racemic),10.3,96,–
640,COc1ccc(CCC2CN(Cc3c[nH]c4cc(Cl)ccc34)CCC2(F)F)cc1 (racemic),180,88,–
160,Fc1cccc(CCC2CN(Cc3c[nH]c4cc(Cl)ccc34)CCC2(F)F)c1 (racemic),44,94,–
25,Fc1ccc(CCC2CN(Cc3c[nH]c4cc(F)ccc34)CCC2(F)F)cc1 (racemic),7,94,–
370,COc1ccc2c(CN3CCC(F)(F)C(CCc4ccccc4OC)C3)c[nH]c2c1 (racemic),100,76,–

IC50 [1] [nM],Structure (SMILES),Ki [1] [nM],inhibition [2] [%],further results
98,Fc1ccccc1CCC1CN(Cc2ccc(Cl)cc2)CCC1(F)F (racemic),27,92,–
510,CSc1ccc(CN2CCC(F)(F)C(CCc3ccccc3)C2)cc1 (racemic),140,93,–
790,FC1(F)CCN(Cc2ccc3ccccc3c2)CC1CCc1ccccc1 (racemic),220,80,–
31,Fc1ccc2c(CN3CCC(F)(F)C(CCc4ccccc4F)C3)c[nH]c2c1 (racemic),8.6,95,–
430,COc1ccc(CCC2CN(Cc3c[nH]c4cc(OC)ccc34)CCC2(F)F)cc1 (racemic),120,93,–
120,FC1(F)CCN(Cc2ncn3ccccc23)CC1CCc1ccccc1 (racemic),34,90,inhibition [3]: < 50%; inhibition [4]: < 50%; inhibition [5]: < 50%; inhibition [6]: < 50%; inhibition [7]: < 50%
760,FC1(F)CCN(Cc2ccc(Cl)cc2)CC1CCc1ccccc1 (racemic),210,80,–
55,Fc1ccccc1CCC1CN(Cc2c[nH]c3cc(Cl)ccc23)CCC1(F)F (racemic),15.3,96,inhibition [3]: < 50%; inhibition [4]: < 50%; inhibition [5]: 57%; inhibition [6]: 69%; inhibition [7]: < 50%
480,COc1ccc(CCC2CN(Cc3c[nH]c4cc(F)ccc34)CCC2(F)F)cc1 (racemic),130,91,–
110,COc1ccc(CN2CCC(F)(F)C(CCc3ccccc3)C2)cc1F (racemic),31,88,–
65,Fc1ccc(CCC2CN(Cc3ccc(Cl)cc3)CCC2(F)F)cc1 (racemic),17.9,95,–
430,COc1ccc(CN2CCC(F)(F)C(CCc3ccccc3)C2)cc1 (racemic),120,87,–
150,Fc1ccccc1CCC1CN(Cc2ncn3ccccc23)CCC1(F)F (racemic),42,92,–
170,COc1ccccc1CCC1CN(Cc2c[nH]c3cc(F)ccc23)CCC1(F)F (racemic),48,94,–
300,FC1(F)CCN(Cc2cccc3cc[nH]c23)CC1CCc1ccccc1 (racemic),84,88,–
720,COc1ccc2[nH]cc(CN3CCC(F)(F)C(CCc4ccccc4)C3)c2c1 (racemic),200,91,inhibition [3]: < 50%; inhibition [4]: < 50%; inhibition [5]: 52%; inhibition [6]: < 50%; inhibition [7]: < 50%
230,COc1ccccc1CCC1CN(Cc2ccc(Cl)cc2)CCC1(F)F (racemic),63,75,–
–,CCOc1ccccc1CN1CCC(F)(F)C(CCc2ccccc2)C1 (racemic),–,49,–
–,COc1ccc(CN2CCC(F)(F)C(CCc3ccccc3)C2)cc1OC (racemic),–,77,–
–,COc1cccc(CCC2CN(Cc3ccc(Cl)cc3)CCC2(F)F)c1 (racemic),–,67,–
–,COc1cccc(CCC2CN(Cc3ncn4ccccc34)CCC2(F)F)c1 (racemic),–,66,–
–,COc1cccc2ccc(CN3CCC(F)(F)C(CCc4ccccc4)C3)nc12 (racemic),–,54,–

IC50 [1] [nM],Structure (SMILES),Ki [1] [nM],inhibition [2] [%],further results
–,COc1ccccc1CCC1CN(Cc2c[nH]c3cccc(F)c23)CCC1(F)F (racemic),–,3,–
–,FC(F)(F)Oc1ccc(CN2CCC(F)(F)C(CCc3ccccc3)C2)cc1 (racemic),–,70,–
–,FC(F)(F)c1cc(CN2CCC(F)(F)C(CCc3ccccc3)C2)cc(C(F)(F)F)c1 (racemic),–,0,–
–,FC(F)(F)c1ccc(CN2CCC(F)(F)C(CCc3ccccc3)C2)cc1 (racemic),–,79,–
–,FC(F)(F)c1cccc(CN2CCC(F)(F)C(CCc3ccccc3)C2)c1 (racemic),–,48,–
–,FC1(F)CCN(Cc2cc3ccccc3s2)CC1CCc1ccccc1 (racemic),–,51,–
–,FC1(F)CCN(Cc2ccc3[nH]ncc3c2)CC1CCc1ccccc1 (racemic),–,68,–
–,FC1(F)CCN(Cc2ccc3ccccc3n2)CC1CCc1ccccc1 (racemic),–,70,–
–,FC1(F)CCN(Cc2cccc(Cl)c2)CC1CCc1ccccc1 (racemic),–,55,–
–,FC1(F)CCN(Cc2cccc3c2OCO3)CC1CCc1ccccc1 (racemic),–,18,–
–,FC1(F)CCN(Cc2nc3cc(Cl)ccc3cc2Cl)CC1CCc1ccccc1 (racemic),–,16,–
–,Fc1ccc(CN2CCC(F)(F)C(CCc3ccccc3)C2)c(Cl)c1 (racemic),–,6,–
–,Fc1ccc2nc(CN3CCC(F)(F)C(CCc4ccccc4)C3)ccc2c1 (racemic),–,66,–
–,Fc1cccc(CCC2CN(Cc3c[nH]c4cccc(F)c34)CCC2(F)F)c1 (racemic),–,59,–
–,Fc1cccc(CCC2CN(Cc3ncn4ccccc34)CCC2(F)F)c1 (racemic),–,78,–
–,Fc1cccc(Cl)c1CN1CCC(F)(F)C(CCc2ccccc2)C1 (racemic),–,10,–
–,Fc1cccc2ccc(CN3CCC(F)(F)C(CCc4ccccc4)C3)nc12 (racemic),–,69,–
–,Fc1ccccc1CCC1CN(Cc2c[nH]c3cccc(F)c23)CCC1(F)F (racemic),–,62,–
–,N#Cc1cc(CN2CCC(F)(F)C(CCc3ccccc3)C2)ccc1F (racemic),–,66,–
–,N#Cc1ccccc1CN1CCC(F)(F)C(CCc2ccccc2)C1 (racemic),–,10,–
